Source: PubChem BioAssay (NCI)
Values joined by “and” are separate entries in the source; they are usually repeats but may differ in a detail not shown here. Equal entries are not always repeated.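 Cells were grown in 96-well plates and exposed to each compound for 48 hours at five concentrations; endpoints were interpolated linearly between bracketing concentrations, or set to the highest concentration if not reached. The concentration for 50% growth inhibition is given as GI50. TGI marks complete inhibition of growth.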

Columns and labels:
Assay in all cases: NCI tumour cell line growth inhibition, 48 h
ACHN renal = tested on: ACHN renal
MALME-3M melanoma = tested on: MALME-3M melanoma
OVCAR-8 ovarian = tested on: OVCAR-8 ovarian
KM12 colon = tested on: KM12 colon
K-562 leukemia = tested on: K-562 leukemia
RXF 393 renal = tested on: RXF 393 renal
UACC-257 melanoma = tested on: UACC-257 melanoma
SK-MEL-28 melanoma = tested on: SK-MEL-28 melanoma
HCT-116 colon = tested on: HCT-116 colon
EKVX NSCLC = tested on: EKVX NSCLC
COLO 205 colon = tested on: COLO 205 colon
SR leukemia = tested on: SR leukemia
NCI/ADR-RES ovarian = tested on: NCI/ADR-RES ovarian
DU-145 prostate = tested on: DU-145 prostate
MDA-N = tested on: MDA-N

Structure (SMILES)	TGI (ACHN renal) [µM]	TGI (MALME-3M melanoma) [µM]	TGI (OVCAR-8 ovarian) [µM]	TGI (KM12 colon) [µM]	TGI (K-562 leukemia) [µM]	TGI (RXF 393 renal) [µM]	TGI (UACC-257 melanoma) [µM]	TGI (SK-MEL-28 melanoma)	TGI (HCT-116 colon) [µM]	TGI (EKVX NSCLC) [µM]	TGI (COLO 205 colon)	TGI (SR leukemia) [µM]	TGI (NCI/ADR-RES ovarian) [µM]	TGI (DU-145 prostate) [µM]	TGI (MDA-N)	GI50 (OVCAR-8 ovarian) [µM]	GI50 (NCI/ADR-RES ovarian) [µM]	GI50 (EKVX NSCLC) [µM]	GI50 (UACC-257 melanoma) [µM]
O=C(NN1C(=O)C(Cl)C1c1ccccc1Cl)c1ccccc1O (centres undefined)	> 100	> 100	> 100	> 100	> 100	88.2	> 100	> 100 µM	> 100										
COc1ccc(CCCN2c3ccccc3Sc3ccccc32)cc1	> 100	> 100	> 100	> 100	> 100	> 100	> 100	> 100 µM	> 100	> 100	> 100 µM								
N#Cc1cc([N+](=O)[O-])ccc1NC(=O)C(=O)C(C(=O)c1ccc2ccccc2c1)C1OCc2ccccc21 (centres undefined)	> 71.1	26.8	20.9	30.4	65.2	12.4	28.2	21.4 µM	16.2	37.4	27.8 µM	16.9							
CC(=O)O[C@H]1C[C@](C)(O)[C@@]23CC([C@@H](OC(=O)C(C)(C)O)[C@@H](OC(C)=O)C2(COC(=O)c2ccccc2)[C@H]1OC(C)=O)C(C)(C)O3 (some centres undefined)	> 100	> 100	> 100	> 100	> 100	> 100	> 100	> 100 µM	> 100	> 100	> 100 µM		> 100	> 100	> 100 µM				
Cc1ccc(NC(=O)/C(=N/NC(=O)C[N+](C)(C)C)c2nc3ccccc3[nH]c2=O)cc1	> 100	> 100	> 100			> 100	> 100	> 100 µM	> 100	> 100	> 100 µM	> 100							
COc1cc2c(c(OC)c1OC)-c1ccc(SC)c(=O)cc1[C@@H](NCc1cccc([N+](=O)[O-])c1)CC2	> 100	> 100	43.8	0.0754	2.39		> 100		< 0.01	> 100	< 0.01 µM	> 100							
N#CCc1nc2cc(C(F)(F)F)ccc2s1	> 100	> 100	87.4	> 100		> 100	> 100		95.2	> 100	> 100 µM		> 100	> 100	> 100 µM				
O=C1CCC2(c3ccc(Cl)cc3)Nc3ncncc3N12 (centres undefined)	> 10	> 10	> 10	> 10	> 10		> 10			> 10			> 10	> 10	> 10 µM				
CCOC(OCC)C(CC)[Se]c1ccccc1 (centres undefined)	> 100	> 100	> 100	> 100	> 100	> 100	> 100	> 100 µM	> 100	> 100	> 100 µM	47.7							
OCC1OC(c2ccccc2)CC1O (centres undefined)	> 100		> 100	> 100	> 100	> 100	> 100	> 100 µM	> 100	> 100	> 100 µM	> 100	> 100	> 100					
COc1ccc(C2=C(Cl)c3cc(OC)c(OC)cc3C2)cc1OC	> 100	> 100	> 100		> 100	73.7	> 100	> 100 µM	> 100	> 100	> 100 µM	> 100							
CCCC(=O)c1ccc(=O)n(C)c1	> 100	> 100	> 100	> 100	> 100	> 100		> 100 µM	> 100	> 100	> 100 µM	> 100							
Cn1nc2ccc3nccc(NCCNCCO)c3c2n1	> 100	> 100	> 100	> 100	> 100	87.5	76.9	> 100 µM	89.4		44 µM	> 100							
O=C(CC(c1ccccc1)C(C(=O)c1ccncc1)C(CC(=O)c1ccncc1)c1ccccc1)c1ccncc1 (centres undefined)	> 100	> 100	> 100	> 100			> 100	> 100 µM	> 100	> 100	> 100 µM	> 100	> 100	> 100					
O=S(c1ccc(Cl)cc1)c1ccccc1C1=NCCN1 (centres undefined)	> 100	> 100	> 100	> 100	> 100	> 100	> 100	> 100 µM	> 100	> 100	> 100 µM		> 100	> 100	> 100 µM				
COc1cc2[nH]c(=O)c3cc(C)cc4c(Cl)nc(c1OC)c2c43	> 100	62	> 100	> 100	> 100	58.1	> 100	> 100 µM	> 100	> 100	> 100 µM		> 100	> 100	> 100 µM				
Cc1c2oc3c(C)cc(F)c(C(=O)NC4C(=O)NC(C(C)C)C(=O)N5CCCC5C(=O)N(C)CC(=O)N(C)C(C(C)C)C(=O)OC4C)c3nc-2c(C(=O)NC2C(=O)NC(C(C)C)C(=O)N3CCCC3C(=O)N(C)CC(=O)N(C)C(C(C)C)C(=O)OC2C)c(N)c1=O (centres undefined)	32.5					0.391		1.31 µM and 0.988 µM		46.8	0.286 µM and 0.354 µM		91		1.32 µM and 1.12 µM	0.142	5.62	0.767	0.0732
CC1=CC(=O)/C(=C/n2c(=S)[nH]c3cc(C)ccc32)C(=O)O1	> 100		> 100	> 100		> 100	> 100	> 100 µM	> 100	> 100	> 100 µM		> 100	> 100	> 100 µM				
